Literature values in publication PMC4894406, “Results of an abbreviated phase-II study with the Akt Inhibitor MK-2206 in Patients with Advanced Biliary Cancer” (Scientific Reports, 2015).

System: cholangiocarcinoma cell lines
Conditions: pre-clinical data; cited from earlier work

Compound | effect on CXCL12-induced cholangiocarcinoma cell invasion
N#CC(=C(/N)Sc1ccccc1N)/C(C#N)=C(/N)Sc1ccccc1N [UO126] | attenuated
O=c1cc(N2CCOCC2)oc2c(-c3ccccc3)cccc12 [LY294002] | attenuated
